Data: PMC12514245, “Impaired migration and lung invasion of human melanoma by a novel small molecule targeting the transmembrane domain of death receptor p75^NTR” (EMBO Molecular Medicine, 2025)
Values joined by “and” are separate entries in the source; they are usually repeats but may differ in a detail not shown here. Equal values may be shown once.

What was measured:
Format in all cases: cell-based
p75^NTR TMD V254A = target: T1, p75^NTR TMD V254A (Homo sapiens, UniProt P08138, V254A); assay: AraTM assay, V254A mutant p75NTR TMD; conditions: for GFP/OD630, p75NTR V254A, Mean: N=3
T1 construct: Comparison of wild-type (WT) p75^NTR TMD and I252A, P253G and V254A mutants in the AraTM assay; expressed in transfected cells; host or cells: E. coli AS19 (LPS-negative)
T1 sequence (P08138 250-275 V254A): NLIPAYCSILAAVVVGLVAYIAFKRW

[1] = target: T2, p75^NTR I253A TMD mutant in COS cells (Rattus norvegicus, UniProt P07174, I253A); assay: Live cell homo-FRET anisotropy, I253A mutant p75NTR; parameters: key to average anisotropy change, I253A: fold change vs mean of 6 pre-treatment time points (baseline ≈ 100); conditions: for average anisotropy change, I253A: 10 μM
T2 construct: COS cells expressing full length, GFP-tagged rat p75^NTR; expressed in transfected cells; host or cells: COS-7
T2 sequence (P07174 30-425 I253A): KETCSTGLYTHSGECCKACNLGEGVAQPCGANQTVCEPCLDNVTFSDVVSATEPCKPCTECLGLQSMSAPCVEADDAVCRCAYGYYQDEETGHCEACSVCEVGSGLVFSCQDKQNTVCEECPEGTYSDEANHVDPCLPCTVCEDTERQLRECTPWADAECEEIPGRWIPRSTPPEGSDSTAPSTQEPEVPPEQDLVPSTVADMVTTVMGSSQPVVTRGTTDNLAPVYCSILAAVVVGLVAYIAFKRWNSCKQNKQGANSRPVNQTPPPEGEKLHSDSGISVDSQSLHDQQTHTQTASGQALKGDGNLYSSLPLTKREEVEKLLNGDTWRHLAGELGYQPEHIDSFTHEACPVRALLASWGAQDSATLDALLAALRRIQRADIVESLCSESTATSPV
Description: Previous real-time homo-FRET anisotropy studies by ours as well as other laboratories have shown that the intracellular death domains of p75^NTR are associated with each other (high FRET, low anisotropy state) under basal conditions (Vilar et al, [2009]; Sykes et al, [2012]), but neurotrophin binding induces transient separation of p75^NTR death domains (low FRET, high anisotropy state) manifested as oscillations in real-time anisotropy measurements (Lin et al, [2015]; Tanaka et al, [2016]; Goh et al, [2018]). COS cells expressing full length, GFP-tagged rat p75^NTR were treated with vehicle or Div17E5 and changes in anisotropy levels were recorded over time.
Anisotropy imaging in COS-7 cells that were transfected with a rat p75^NTR-EGFP* fusion construct was done as previously described (Goh, Lin et al, [2018]). EGFP* carries a […] mutation rendering monomeric EGFP. Changes in anisotropy were expressed as fold change at each time point (every 30 s) in comparison to the mean of 6 time points obtained prior to addition of treatment. Images were acquired using Nikon Ti-E based live cell epi-fluorescence microscope and MetaMorph software and analyzed using MatLab from Mathworks.

p75^NTR TMD = target: T3, p75^NTR TMD (Homo sapiens, UniProt P08138); assay: AraTM assay, wild-type p75NTR TMD (GFP/OD630); conditions: for GFP/OD630, p75, mean / GFP/OD630, p75NTR WT, Mean: N=3; for GFP/OD630, p75NTR WT, n1-n3: WT without drug = 100%; for GFP/OD630, Mean / GFP/OD630, individual replicates: Figure 5B
T3 sequence (P08138 250-275 limits assumed): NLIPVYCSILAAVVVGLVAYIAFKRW

Oc1ccc(-c2cncc(Nc3ccc(Br)c(Cl)c3)n2)cc1 [Div17E5]
effect of Val254 mutation on compound activity in AraTM assay (p75^NTR TMD V254A): abolished
GFP/OD630, p75NTR V254A, n1-n3 (p75^NTR TMD V254A; Div17E5 7.5 uM): 87% and 97% and 91%
GFP/OD630, p75NTR V254A, Mean (p75^NTR TMD V254A; Div17E5 7.5 uM): 92%
GFP/OD630, p75NTR V254A, n1-n3 (p75^NTR TMD V254A; Div17E5 15 uM): 86% and 95% and 96%
GFP/OD630, p75NTR V254A, Mean (p75^NTR TMD V254A; Div17E5 15 uM): 92%
GFP/OD630, p75NTR V254A, n1-n3 (p75^NTR TMD V254A; Div17E5 20 uM): 89% and 96% and 99%
GFP/OD630, p75NTR V254A, Mean (p75^NTR TMD V254A; Div17E5 20 uM): 95%
GFP/OD630, p75NTR V254A, n1-n3 (p75^NTR TMD V254A; Div17E5 50 uM): 95% and 85% and 98%
GFP/OD630, p75NTR V254A, Mean (p75^NTR TMD V254A; Div17E5 50 uM): 93%
real-time homo-FRET anisotropy, Ile253 to Ala mutant ([1]; 10 µM): blunted homo-FRET changes
average anisotropy change, I253A ([1]; 0 min after compound addition): 101
average anisotropy change, I253A ([1]; 0.5 min after compound addition): 97
average anisotropy change, I253A ([1]; 1 min after compound addition): 99
average anisotropy change, I253A ([1]; 1.5 min after compound addition): 105
average anisotropy change, I253A ([1]; 2 min after compound addition): 103
average anisotropy change, I253A ([1]; 2.5 min after compound addition): 100
average anisotropy change, I253A ([1]; 3 min after compound addition): 100
average anisotropy change, I253A ([1]; 3.5 min after compound addition): 99
average anisotropy change, I253A ([1]; 4 min after compound addition): 102
average anisotropy change, I253A ([1]; 4.5 min after compound addition): 95
average anisotropy change, I253A ([1]; 5 min after compound addition): 101
average anisotropy change, I253A ([1]; 5.5 min after compound addition): 100
average anisotropy change, I253A ([1]; 6 min after compound addition): 103
average anisotropy change, I253A ([1]; 6.5 min after compound addition): 91
average anisotropy change, I253A ([1]; 7 min after compound addition): 103
average anisotropy change, I253A ([1]; 7.5 min after compound addition): 100
average anisotropy change, I253A ([1]; 8 min after compound addition): 96
average anisotropy change, I253A ([1]; 8.5 min after compound addition): 103
average anisotropy change, I253A ([1]; 9 min after compound addition): 93
average anisotropy change, I253A ([1]; 9.5 min after compound addition): 102
average anisotropy change, I253A ([1]; 10 min after compound addition): 101
average anisotropy change, I253A ([1]; 10.5 min after compound addition): 97
average anisotropy change, I253A ([1]; 11 min after compound addition): 105
average anisotropy change, I253A ([1]; 11.5 min after compound addition): 98
average anisotropy change, I253A ([1]; 12 min after compound addition): 97
average anisotropy change, I253A ([1]; 12.5 min after compound addition): 99
average anisotropy change, I253A ([1]; 13 min after compound addition): 104
average anisotropy change, I253A ([1]; 13.5 min after compound addition): 102
average anisotropy change, I253A ([1]; 14 min after compound addition): 96
average anisotropy change, I253A ([1]; 14.5 min after compound addition): 104
average anisotropy change, I253A ([1]; 15 min after compound addition): 99
average anisotropy change, I253A ([1]; -0.5 min after compound addition): 106
average anisotropy change, I253A ([1]; -1 min after compound addition): 94
average anisotropy change, I253A ([1]; -1.5 min after compound addition): 101
average anisotropy change, I253A ([1]; -2 min after compound addition): 103
average anisotropy change, I253A ([1]; -2.5 min after compound addition): 97
average anisotropy change, I253A ([1]; -3 min after compound addition): 99
GFP/OD630, p75, single replicates (p75^NTR TMD; Div17E5 1 μM): 95 and 91 and 115
GFP/OD630, p75, mean (p75^NTR TMD; Div17E5 1 μM): 100
GFP/OD630, p75, single replicates (p75^NTR TMD; Div17E5 2.5 μM): 82 and 86 and 101
GFP/OD630, p75, mean (p75^NTR TMD; Div17E5 2.5 μM): 90
GFP/OD630, p75, single replicates (p75^NTR TMD; Div17E5 5 μM): 66 and 81 and 88
GFP/OD630, p75, mean (p75^NTR TMD; Div17E5 5 μM): 78
GFP/OD630, p75NTR WT, Mean (p75^NTR TMD; Div17E5 7.5 uM): 69%
GFP/OD630, p75NTR WT, n1-n3 (p75^NTR TMD; Div17E5 7.5 uM): 70% and 62% and 76%
GFP/OD630, p75, single replicates (p75^NTR TMD; Div17E5 10 μM): 49 and 55 and 68
GFP/OD630, p75, mean (p75^NTR TMD; Div17E5 10 μM): 57
GFP/OD630, p75NTR WT, Mean (p75^NTR TMD; Div17E5 15 uM): 61%
GFP/OD630, p75NTR WT, n1-n3 (p75^NTR TMD; Div17E5 15 uM): 62% and 58% and 63%
GFP/OD630, p75, single replicates (p75^NTR TMD; Div17E5 20 μM): 39 and 55 and 49
GFP/OD630, p75NTR WT, Mean (p75^NTR TMD; Div17E5 20 uM): 45%
GFP/OD630, p75, mean (p75^NTR TMD; Div17E5 20 μM): 48
GFP/OD630, p75NTR WT, n1-n3 (p75^NTR TMD; Div17E5 20 uM): 50% and 41% and 44%
GFP/OD630, p75, single replicates (p75^NTR TMD; Div17E5 50 μM): 33 and 42 and 39
GFP/OD630, p75NTR WT, Mean (p75^NTR TMD; Div17E5 50 uM): 45%
GFP/OD630, p75, mean (p75^NTR TMD; Div17E5 50 μM): 38
GFP/OD630, p75NTR WT, n1-n3 (p75^NTR TMD; Div17E5 50 uM): 43% and 46% and 47%
GFP/OD630, Mean (p75^NTR TMD; compound 2 μM): 0.93
GFP/OD630, individual replicates (p75^NTR TMD; compound 2 μM): 0.98 and 0.93 and 0.88
GFP/OD630, Mean (p75^NTR TMD; compound 4 μM): 0.86
GFP/OD630, individual replicates (p75^NTR TMD; compound 4 μM): 0.83 and 0.92 and 0.82
GFP/OD630, Mean (p75^NTR TMD; compound 6 μM): 0.82
GFP/OD630, individual replicates (p75^NTR TMD; compound 6 μM): 0.86 and 0.78 and 0.83
GFP/OD630, Mean (p75^NTR TMD; compound 8 μM): 0.44
GFP/OD630, individual replicates (p75^NTR TMD; compound 8 μM): 0.43 and 0.51 and 0.37
GFP/OD630, Mean (p75^NTR TMD; compound 10 μM): 0.43
GFP/OD630, individual replicates (p75^NTR TMD; compound 10 μM): 0.41 and 0.48 and 0.40
IC50 (p75^NTR TMD; dose-response): 12 µM
selectivity for the p75NTR TMD as compared to TMDs of two unrelated proteins (p75^NTR TMD; vs α2β3 integrin and M2 TMDs): good selectivity
